Measured values taken from patent US20150017636A1, “Detection and Monitoring of Macrocyclic Lactone Resistance in Nematodes” (priority 2013, published 2015).
Like-named read-outs stand apart in the source and are kept apart here.

Key:
Haemonchus contortus = conditions: cited from earlier work
C. elegans IVR10 strain = assay: Rescue of Dyf7 gene in IVR10: ivermectin sensitivity of transgenic worms on NGM plates; type: in vivo, Caenorhabditis elegans; conditions: Dyf7 ttx 1 and Dyf7 ttx 2 strains (IVR10 with wildtype Dyf7 transgene), 6 ng/mL ivermectin, plated as eggs, scored at two days
Protocol: FIG. 2 illustrates the rescue of Dyf7 gene in C. elegans IVR10 strain. Effect of Dyf7 rescued (strains Dyf7 ttx 1 and Dyf7 ttx 2) on ivermectin sensitivity. Strains “ttx ctrl 1” and “ttx ctrl 2” contain only the ttx-3:GFP transgenic marker. Results are shown as the percentage of growth of transgenic nematodes (as measured by GFP expression) in function of the type of transgenic nematode and treatment.
The wild-type Bristol N2 C. elegans strain was cultured in nematode growth medium (NGM) with OP50 Escherichia coli under standard conditions (Brenner, 1974). The IVR6 and IVR10 resistant strains to ivermectin were derived from Bristol N2, by successive increasing concentrations of ivermectin (James and Davey, 2009). […]
Genomic DNA extracted from C. elegans C43C3 cosmid (provided by the Sanger Institute, UK) was used to amplify the Dyf7 gene using the primers Dyf7-CeB-sense-5′-[…]-3′ (SEQ ID NO: 3) and Dyf7-CeB-antisense-5′-CTCATTTCTGGTCAAACG-3′ (SEQ ID NO: 4). […] The worms were separated into transgenic and non-transgenic based on GFP expression (green channel) and then each population scored for resistance phenotype.
To determine if the Dyf7 rescuing fragment rescues the ivermectin-sensitivity phenotype of IVR10, each strain was plated, as eggs, onto NGM plates containing 6 ng/mL ivermectin and DMSO control plates. At two days, the L4 and adult worms were scored for presence of the transgene. […]

Substance: ivermectin
- IVM Drug Phenotype (Haemonchus contortus; isolate 1202, Brazil): Resistant
- IVM Drug Phenotype (Haemonchus contortus; isolate CRA, RSA): Susceptible
- IVM Drug Phenotype (Haemonchus contortus; isolate Cedara, RSA): Resistant
- IVM Drug Phenotype (Haemonchus contortus; isolate Coruzu, Argentina): Resistant
- IVM Drug Phenotype (Haemonchus contortus; isolate F15, Brazil): Resistant
- IVM Drug Phenotype (Haemonchus contortus; isolate Haecon, Australia): Resistant
- IVM Drug Phenotype (Haemonchus contortus; isolate Howick, RSA): Resistant
- IVM Drug Phenotype (Haemonchus contortus; isolate ISE, UK): Susceptible
- IVM Drug Phenotype (Haemonchus contortus; isolate Kokstad, RSA): Resistant
- IVM Drug Phenotype (Haemonchus contortus; isolate MOF23, USA): Moderate Resistant
- IVM Drug Phenotype (Haemonchus contortus; isolate MOF23-9*, USA, 23 generations of moxidectin selection): Resistant
- IVM Drug Phenotype (Haemonchus contortus; isolate PF23, USA): Susceptible
- IVM Drug Phenotype (Haemonchus contortus; isolate PF23-24, USA): Susceptible
- IVM Drug Phenotype (Haemonchus contortus; isolate Rog-gliswil, Switzerland): Resistant
- IVM Drug Phenotype (Haemonchus contortus; isolate SUL, Uruguay): Resistant
- IVM Drug Phenotype (Haemonchus contortus; isolate Sorin, France): Susceptible
- IVM Drug Phenotype (Haemonchus contortus; isolate Wallangra 85, Australia): Susceptible
- IVM Drug Phenotype (Haemonchus contortus; isolate Yallanbee, Australia): Susceptible
- IVM phenotype of the strain (Haemonchus contortus; strain IVF23, ivermectin selected from the PF strain): resistant
- growth of transgenic worms (escape from L1 arrest, L4 and adult worms scored for the transgene) (C. elegans IVR10 strain): no transgenic worms that escaped L1 arrest
